Data set [1] is described as follows: Bioequivalence test. The note with it: for AUCτ test/reference ratio [90 % CI] / Cmax test/reference ratio [90 % CI]: LDX + VXR Day 30 vs VXR alone Day 15, Treatment Arm B; for AUC / Cmax: human, in vivo.
Data set [2] can be described thus: Plasma pharmacokinetics of LDX, d-amphetamine, VEN and ODV. The note with it: mean (SD), day 15.
Data set [3] concerns CYP2D6. In words: In vivo CYP2D6 interaction, VXR as CYP2D6 substrate coadministered with LDX. The note with it: inferred from VEN increase and ODV decrease with LDX + VXR coadministration.
Data set [4] concerns CYP2D6. The settings on record: cited from earlier work.
For data set [5], the system named is cytochrome P450 (CYP) isoenzyme. The note with it: any CYP isoenzyme tested to date; cited from earlier work.
Data set [6] is described as follows: Vital signs. The settings on record: single treatment (LDX alone Arm A; VXR alone Arm B). Format: in vivo, human.
Data set [7] in a line: Treatment-emergent adverse events. Type of data set: in vivo, human.
The mark [8] stands for this setting: treatment arms combined, LDX alone n = 40 and VXR alone n = 37 during dose titration periods, LDX + VXR n = 67.

Where “and” joins values, the source holds several entries; their conditions need not be identical. Equal entries are not always repeated.

With `COc1ccc(C(CN(C)C)C2(O)CCCCC2)cc1` (centres unmarked) [VEN, Venlafaxine], in data set [1], the “AUCτ test/reference ratio [90 % CI]” value was 1.13 [0.88, 1.45] and 1.129 [0.88, 1.45]; the “Cmax test/reference ratio [90 % CI]” value is 1.10 [0.88, 1.38] and 1.103 [0.881, 1.38]. The “Geometric least squares mean Cmax” value in data set [1] (VXR alone, Day 15, Treatment Arm B) was 180.7 ng/mL. Further, in data set [1] (225 mg/day), the AUC worked out at 2410 ng·h/mL. Further, the tmax in data set [2] (after VXR alone 225 mg/day) is 6.4 (0.8) h.
Regarding `C[C@H](N)Cc1ccccc1` [d-Amphetamine, dextroamphetamine], the “Inhibition of CYP2D6 activity, from current pharmacokinetic findings” value in data set [3] is given as “weak inhibitor”. In data set [1] (70 mg/day), the area under the curve (AUC) turned out to be 1110 ng·h/mL and the Cmax came out at 85.9 ng/mL. Further, the “Inhibition of CYP2D6 activity” value in data set [4] was “weakly inhibits”.
With `CN(C)CC(c1ccc(O)cc1)C1(O)CCCCC1` (centres unmarked) [ODV, O-desmethylvenlafaxine], in data set [1], the “AUCτ test/reference ratio [90 % CI]” value was 0.83 [0.71, 0.96] and 0.826 [0.713, 0.956]; the “Cmax test/reference ratio [90 % CI]” value was 0.907 [0.777, 1.058]. Moreover, in data set [1] (225 mg/day), the AUC was found to be 8080 ng·h/mL and the Cmax was 392 ng/mL.
Regarding `CS(=O)(=O)O.CS(=O)(=O)O.C[C@@H](Cc1ccccc1)NC(=O)[C@@H](N)CCCCN` [LDX, Lisdexamfetamine dimesylate], the “Inhibition of CYP isoenzymes” value in data set [5] is “does not inhibit”. In addition, in data set [6], the “Maximum mean increase in DBP” value is listed as about 6 mmHg, the “Maximum mean increase in SBP” value is reported as about 7 mmHg and the “Maximum mean increase in pulse rate” value was “approximately 13 beats/min”. Further, in data set [2] (after LDX alone 70 mg/day), the AUCτ is reported as 65.5 (44.0) ng·h/mL, the Cmax is given as 49.1 (32.25) ng/mL, the tmax was 1.1 (0.3) h and the t½ is listed as 0.4 (0.1) h. For the same molecule, the “Time to resolution of serious AE (presyncope)” value in data set [7] (one participant, LDX 30 mg/day) is reported as at most 10 min. In data set [7] (setting [8]), the “Any TEAE” value is given as 33 (82.5) n (%), the “TEAE Anorexia” value is recorded as 12 (30.0) n (%), the “TEAE Anxiety” value is listed as 5 (12.5) n (%) and the “TEAE Back pain” value is 2 (5.0) n (%). Further, in data set [7] (setting [8]), the “TEAE Chest pain” value is listed as 3 (7.5) n (%), the “TEAE Constipation” value was 3 (7.5) n (%), the “TEAE Diarrhoea” value is 2 (5.0) n (%) and the “TEAE Dizziness” value is 3 (7.5) n (%). In addition, in data set [7] (setting [8]), the “TEAE Dry mouth” value is reported as 10 (25.0) n (%), the “TEAE Dyspnoea” value is on record as 2 (5.0) n (%), the “TEAE Epistaxis” value is given as 0 (0.0) n (%) and the “TEAE Euphoric mood” value was 3 (7.5) n (%). In data set [7] (setting [8]), the “TEAE Headache” value was 7 (17.5) n (%), the “TEAE Insomnia” value is recorded as 7 (17.5) n (%), the “TEAE Libido decreased” value is reported as 0 (0.0) n (%) and the “TEAE Nausea” value was 6 (15.0) n (%). Moreover, in data set [7] (setting [8]), the “TEAE Palpitations” value is on record as 8 (20.0) n (%), the “TEAE Somnolence” value is recorded as 7 (17.5) n (%), the “TEAE Stomach discomfort” value is reported as 2 (5.0) n (%) and the “TEAE Testicular pain” value is reported as 0 (0.0) n (%). Further, in data set [7] (setting [8]), the “TEAE Urinary hesitation” value is reported as 0 (0.0) n (%) and the “TEAE Vision blurred” value was 2 (5.0) n (%).

The values above are taken from article PMC3608883 (Clinical Drug Investigation, 2013).
